Values after ≈ are worked out from the molar mass of the structure shown.

Common to all, as to type: functional, cell-based
Test [1] has as its system A549. Put plainly: Antitumor activity against human lung adenocarcinoma A549 cell line.
Test [2] has as its system CNE. Put plainly: Antitumor activity against human nasopharyngeal carcinoma CNE cell line.
The subject of test [3] is MCF7. Put plainly: Antitumor activity against human breast adenocarcinoma MCF7 cell line.
Test [4] deals with HeLa. Put plainly: Antitumor activity against human cervical carcinoma HeLa cell line.
[5] abbreviates: Homo sapiens, A549, read-out: IC50.
Setting [6] is: Homo sapiens, MCF7, read-out: IC50.
Where [7] appears, read: Homo sapiens, HeLa, read-out: IC50.
Where [8] appears, read: Homo sapiens, CNE, read-out: IC50.

In the case of `CC1(C)CCC[C@]2(C)c3cc(O)c(O)cc3CC[C@@H]12` (stereo in doubt; 1), the IC50 in test [1] (setting [5]) was 19.6 µg/mL (≈ 75.3 µM); in test [2] (cne) it was 25.1 µg/mL (≈ 96.4 µM); in test [3] (setting [6]), 41.2 µg/mL (≈ 158 µM); in test [4] (setting [7]), 24.3 µg/mL (≈ 93.3 µM).

For `CC1(C)CCC[C@]2(C)c3cc(OCc4ccc(Cl)cc4)c(O)cc3CC[C@H]12`, the IC50 in test [1] (setting [5]) was 46.9 µg/mL (≈ 122 µM); in test [2] (setting [8]) it was 27.2 µg/mL (≈ 70.7 µM); in test [3] (setting [6]), more than 50 µg/mL; in test [4] (setting [7]), 42.2 µg/mL (≈ 110 µM).

Turning to `CC1(C)CCC[C@]2(C)c3cc(O)c(OCc4cccc([N+](=O)[O-])c4)cc3CC[C@H]12`, the IC50 in test [1] (setting [5]) is more than 50 µg/mL; in test [2] (setting [8]) it was more than 50 µg/mL; in test [3] (setting [6]), more than 50 µg/mL; in test [4] (setting [7]), 18.6 µg/mL (≈ 47 µM).

In the case of `CC1(C)CCC[C@]2(C)c3cc(OCc4ccccc4F)c(O)cc3CC[C@@H]12`, the IC50 in test [1] (setting [5]), in test [2] (setting [8]), in test [3] (setting [6]) and in test [4] (setting [7]) was more than 50 µg/mL each time.

On to `CC1(C)CCC[C@]2(C)c3cc(OCc4ccccc4F)c(O)cc3CC[C@H]12`, for which the IC50 turned out to be 13.7 µg/mL (≈ 37.2 µM) in test [1] (setting [5]), 7.2 µg/mL (≈ 19.5 µM) in test [2] (setting [8]), 12.4 µg/mL (≈ 33.7 µM) in test [3] (setting [6]) and 15.3 µg/mL (≈ 41.5 µM) in test [4] (setting [7]).

In the case of `CC1(C)CCC[C@]2(C)c3cc(OCc4cccc([N+](=O)[O-])c4)c(O)cc3CC[C@H]12`, the IC50 in test [1] (setting [5]) is 36.4 µg/mL (≈ 92 µM); in test [2] (setting [8]), 32.9 µg/mL (≈ 83.2 µM); in test [3] (setting [6]) it was more than 50 µg/mL; in test [4] (setting [7]) it was more than 50 µg/mL.

Turning to `CC1(C)CCC[C@]2(C)c3cc(O)c(OCc4cccc([N+](=O)[O-])c4)cc3CC[C@@H]12`, the IC50 in test [1] (setting [5]), in test [2] (setting [8]), in test [3] (setting [6]) and in test [4] (setting [7]) was more than 50 µg/mL throughout.

Consider `CC1(C)CCC[C@]2(C)c3cc(O)c(OCc4ccc(Cl)cc4)cc3CC[C@@H]12`, for which the concentration for half-maximal inhibition (IC50) in test [1] (setting [5]), in test [2] (setting [8]), in test [3] (setting [6]) and in test [4] (setting [7]) was more than 50 µg/mL throughout.

`CC1(C)CCC[C@]2(C)c3cc(O)c(OCc4ccccc4F)cc3CC[C@H]12`: the IC50 was determined as 35 µg/mL (≈ 95 µM) in test [1] (setting [5]), 17.8 µg/mL (≈ 48.3 µM) in test [2] (setting [8]), 42.9 µg/mL (≈ 116 µM) in test [3] (setting [6]) and 13.4 µg/mL (≈ 36.4 µM) in test [4] (setting [7]).

As for `CC1(C)CCC[C@]2(C)c3cc(O)c(O)cc3CC[C@H]12`, the IC50 was determined as 5.7 µg/mL (≈ 21.9 µM) in test [1] (setting [5]), 3.6 µg/mL (≈ 13.8 µM) in test [2] (setting [8]), 9.6 µg/mL (≈ 36.9 µM) in test [3] (setting [6]) and 10.9 µg/mL (≈ 41.9 µM) in test [4] (setting [7]).

Turning to `CC1(C)CCC[C@]2(C)c3cc(O)c(O)cc3C(=O)C[C@H]12`, the IC50 in test [1] (setting [5]) was more than 50 µg/mL; in test [2] (setting [8]), 13.5 µg/mL (≈ 49.2 µM); in test [3] (setting [6]) it was 36.2 µg/mL (≈ 132 µM); in test [4] (setting [7]) it was 17.6 µg/mL (≈ 64.1 µM).

For the molecule `CC1(C)CCC[C@]2(C)c3cc(OCc4cccc([N+](=O)[O-])c4)c(O)cc3CC[C@@H]12`, the concentration for half-maximal inhibition (IC50) in test [1] (setting [5]), in test [2] (setting [8]), in test [3] (setting [6]) and in test [4] (setting [7]) was more than 50 µg/mL each time.

Turning to `COc1cc2c(cc1OC)[C@@]1(C)CCCC(C)(C)[C@@H]1CC2`, the IC50 is 41.7 µg/mL (≈ 145 µM) in test [1] (setting [5]), 25.1 µg/mL (≈ 87 µM) in test [2] (setting [8]), 39.5 µg/mL (≈ 137 µM) in test [3] (setting [6]) and 41.5 µg/mL (≈ 144 µM) in test [4] (setting [7]).

As to `CC1(C)CCC[C@]2(C)c3cc(O)c(OCc4ccccc4F)cc3CC[C@@H]12`, the IC50 in test [1] (setting [5]), in test [2] (setting [8]), in test [3] (setting [6]) and in test [4] (setting [7]) was more than 50 µg/mL throughout.

As to `COc1cc2c(cc1OC)[C@@]1(C)CCCC(C)(C)[C@@H]1CC2=O`, the concentration for half-maximal inhibition (IC50) in test [1] (setting [5]) is more than 50 µg/mL; in test [2] (setting [8]) it was more than 50 µg/mL; in test [3] (setting [6]), more than 50 µg/mL; in test [4] (setting [7]), 25.7 µg/mL (≈ 85 µM).

As to CISPLATIN, the IC50 in test [1] (a549) came to 3.58 µg/mL; in test [2] (cne), 2.34 µg/mL; in test [3] (mcf7), 6.53 µg/mL; in test [4] (hela) it was 5.89 µg/mL.

Regarding `CC1(C)CCC[C@]2(C)c3cc(OCc4ccc(Cl)cc4)c(O)cc3CC[C@@H]12`, the IC50 in test [1] (setting [5]), in test [2] (setting [8]), in test [3] (setting [6]) and in test [4] (setting [7]) was more than 50 µg/mL each time.

`COc1cc2c(cc1OC)[C@@]1(C)CCCC(C)(C)[C@H]1CC2`: the IC50 in test [1] (setting [5]) turned out to be 9.6 µg/mL (≈ 33.3 µM); in test [2] (setting [8]) it was 4.5 µg/mL (≈ 15.6 µM); in test [3] (setting [6]) it was 10.9 µg/mL (≈ 37.8 µM); in test [4] (setting [7]), 13.2 µg/mL (≈ 45.8 µM).

`COc1cc2c(cc1OC)[C@@]1(C)CCCC(C)(C)[C@H]1C(=O)C2=O`: the IC50 in test [1] (setting [5]) is 33.8 µg/mL (≈ 107 µM); in test [2] (setting [8]) it was 5.6 µg/mL (≈ 17.7 µM); in test [3] (setting [6]) it was 16.5 µg/mL (≈ 52.1 µM); in test [4] (setting [7]), 16.1 µg/mL (≈ 50.9 µM).

Regarding `CC1(C)CCC[C@]2(C)c3cc(O)c(OCc4ccc(Cl)cc4)cc3CC[C@H]12`, the IC50 in test [1] (setting [5]), in test [2] (setting [8]), in test [3] (setting [6]) and in test [4] (setting [7]) was more than 50 µg/mL each time.

`COc1cc2c(cc1OC)[C@@]1(C)CCCC(C)(C)[C@H]1CC2=O`: the IC50 worked out at 26.3 µg/mL (≈ 87 µM) in test [1] (setting [5]), 3.1 µg/mL (≈ 10.3 µM) in test [2] (setting [8]), 7.8 µg/mL (≈ 25.8 µM) in test [3] (setting [6]) and 12.7 µg/mL (≈ 42 µM) in test [4] (setting [7]).

Regarding `CC1(C)CCC[C@]2(C)c3cc(O)c(O)cc3CC[C@@H]12` (stereo in doubt), the IC50 in test [1] (a549) is 36.1 µg/mL (≈ 139 µM); in test [2] (cne) it was 12.1 µg/mL (≈ 46.5 µM); in test [3] (mcf7), 36.5 µg/mL (≈ 140 µM); in test [4] (hela) it was 42 µg/mL (≈ 161 µM).

As for `CC1(C)CCC[C@]2(C)c3cc(O)c(O)cc3C(=O)C[C@@H]12`, the IC50 in test [1] (setting [5]) was more than 50 µg/mL; in test [2] (setting [8]), 22.1 µg/mL (≈ 80.6 µM); in test [3] (setting [6]), more than 50 µg/mL; in test [4] (setting [7]) it was 27.7 µg/mL (≈ 101 µM).

As to `CC1(C)CCC[C@]2(C)c3cc(O)c(O)cc3C(=O)C(=O)[C@H]12`, the IC50 in test [1] (setting [5]) is 25.8 µg/mL (≈ 89.5 µM); in test [2] (setting [8]), 9.1 µg/mL (≈ 31.6 µM); in test [3] (setting [6]), 24.8 µg/mL (≈ 86 µM); in test [4] (setting [7]) it was 18 µg/mL (≈ 62.4 µM).

The values above are taken from ChEMBL document CHEMBL1149445, “Isolation, synthesis, and anti-tumor activities of a novel class of podocarpic diterpenes” (Bioorg Med Chem Lett, 2006).
